Assay results taken from patent US20220017863A1, “SIRT2-ABLATED CHIMERIC T CELLS” (H. Lee Moffitt Cancer Center and Research Institute, Inc., priority 2019, published 2022).
Entries after “also recorded” stand apart in the source; their conditions may differ.

Key:
[1] = system: human CD3+ T cells; test: Seahorse extracellular flux analysis of CD3-stimulated human CD3+ T cells from healthy donors; assay type: cell-based; details: anti-CD3 plus inhibitor vs vehicle, 48 hr
Description: Human peripheral blood mononuclear cells (PBMC) were obtained from healthy donors by density gradient centrifugation using Ficoll-Paque™ PLUS Media (GE Healthcare). CD3^+ lymphocytes were negatively enriched using human Pan T cell isolation Kit™ (Miltenyi Biotec).
Extracellular acidification rates (ECAR) were measured using the Seahorse XF analyzer (Agilent). Glycolysis Stress Test (GST) and glycolytic rate assay (GRA) were performed according to kit manufacturer's instructions.
The day of the assay, 2×10^5 activated T cells were plated in Cell-Tak (Corning)-coated XF96 plates in XF media (XF RPMI Medium pH 7.4 containing 2 mM L-glutamine only for GST or supplemented with 10 mM glucose, 2 mM L-glutamine and 1 mM sodium pyruvate for GRA test, all from Agilent technologies) via centrifugation to ensure cell attachment. Cells were equilibrated for 1 hour in a non-CO2 incubator before starting the assay.
(§1) For GST, ECAR was measured under basal conditions and in response to 10 mM glucose, 1 μM oligomycin and 50 mM 2-DG successively to calculate basal glycolytic rate, glycolytic capacity (in response to oligomycin), and glycolytic reserve (glycolytic capacity−basal rate). For GRA, ECAR was measured under basal conditions and in response to 0.5 μM rotenone+0.5 μM antimycin A and 50 mM 2-DG successively to calculate basal glycolysis and compensatory glycolysis (in response to rotenone+antimycin A). Results were normalized to total protein quantified using Pierce™ BCA Protein Assay Kit (ThermoFisher Scientific).
Human peripheral blood mononuclear cells (PBMC) were obtained from healthy donors by density gradient centrifugation using Ficoll-Paque™ PLUS Media (GE Healthcare). CD3^+ lymphocytes were negatively enriched using human Pan T cell isolation Kit™ (Miltenyi Biotec). […].
Extracellular acidification rate (ECAR) and oxygen consumption rate (OCR) were measured using the Seahorse XF analyzer (Agilent technologies). Glycolysis Stress Test (GST), glycolytic rate assay (GRA) and mitochondrial stress test (MST) were purchased from Agilent technologies and performed according to the kit manufacturer's instructions. […]
For GST, ECAR and OCR were measured under basal conditions and in response to 10 mM glucose, 1 μM oligomycin and 50 mM 2-DG successively to calculate basal glycolytic rate, glycolytic capacity (in response to oligomycin), and glycolytic reserve (glycolytic capacity basal rate).
For GRA, ECAR and OCR were measured under basal conditions and in response to 0.5 μM roteone/antimycin A and 50 mM 2-DG successively to calculate basal glycolysis and compensatory glycolysis (in response to rotenone/antimycin A).

[2] = system: human TILs; test: Seahorse extracellular flux analysis of CD3-stimulated human TILs from NSCLC patients; assay type: cell-based; details: anti-CD3 plus AGK2 vs vehicle, 48 hr
Description: Human tumor infiltrating lymphocytes (hTILs) samples isolated from tumor biopsies of patients with nonsmall cell lung cancer (NSCLC) were generously provided by Dr. Antonia lab (Moffitt Cancer Center). All human samples remained totally de-identified and no Institutional Review Board (IRB) approval was needed.
hTILs were maintained in RPMI 1640 Medium, supplemented with 10% human AB serum (Valley Biomedical, Inc.), 1 mM Hepes (Sigma-Aldrich), 1% P/S (Thomas Scientific Inc), 50 μg/ml Gentamicin (ThermoFisher Scientific), 50 μM […] (ThermoFisher Scientific) and 6000 U/ml of recombinant human IL-2 (Peprotech).
Extracellular acidification rates (ECAR) were measured using the Seahorse XF analyzer (Agilent). […]
as §1, with “Scientific). […]” for “Scientific).”

[3] = target: T1, SIRT1 (Homo sapiens, UniProt Q96EB6); details: at 10-fold higher levels than the SIRT2 IC50; cited from earlier work
T1 sequence (Q96EB6 1-747): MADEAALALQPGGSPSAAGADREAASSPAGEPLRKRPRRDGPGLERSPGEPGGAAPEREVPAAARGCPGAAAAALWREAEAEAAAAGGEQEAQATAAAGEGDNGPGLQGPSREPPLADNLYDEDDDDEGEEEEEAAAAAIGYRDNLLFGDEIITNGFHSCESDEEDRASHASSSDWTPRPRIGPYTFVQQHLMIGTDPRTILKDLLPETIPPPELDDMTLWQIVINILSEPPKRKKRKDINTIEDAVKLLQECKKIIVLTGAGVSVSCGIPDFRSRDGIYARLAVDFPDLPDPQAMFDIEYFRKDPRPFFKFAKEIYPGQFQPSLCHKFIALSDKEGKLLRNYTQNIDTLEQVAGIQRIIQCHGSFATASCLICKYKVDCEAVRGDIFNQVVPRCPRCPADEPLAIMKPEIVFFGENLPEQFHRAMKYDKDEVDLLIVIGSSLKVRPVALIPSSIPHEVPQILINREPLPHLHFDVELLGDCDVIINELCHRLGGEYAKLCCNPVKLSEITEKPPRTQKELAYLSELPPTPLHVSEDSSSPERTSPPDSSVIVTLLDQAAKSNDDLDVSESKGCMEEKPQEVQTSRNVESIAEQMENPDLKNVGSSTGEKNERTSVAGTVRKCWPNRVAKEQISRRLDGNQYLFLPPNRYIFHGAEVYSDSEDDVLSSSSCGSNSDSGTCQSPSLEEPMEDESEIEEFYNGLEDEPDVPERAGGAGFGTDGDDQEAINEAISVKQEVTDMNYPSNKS

## N#C/C(=C/c1ccc(-c2cc(Cl)ccc2Cl)o1)C(=O)Nc1cccc2ncccc12 [AGK2]
[1]
  OxPhos: increased
  aerobic glycolysis (ECAR/PER): increases; also recorded: augments
[2]; human TILs from 5 NSCLC patients
  OxPhos (OCR): increased
[2]; human TILs from NSCLC patients, 5 patient samples
  aerobic glycolysis (ECAR): increases
[3]
  effect on SIRT1: minimally affects
